pIC50, pKi: −log10 of the molar value. Several values for one entry are separate records, joined by “and”; a condition that tells them apart may be missing. Identical values can stand only once.
Assays:
[1] = target: T1, human adrenergic receptor α1A (Homo sapiens, UniProt P35348); experiment: Intrinsic activity, aequorin luminescence functional assay at α1A-AR; format: cell-based; conditions: for α1A-AR Profile: agonist/antagonist profile; for pIC50: cells expressing aequorin and human α1A, against phenylephrine, means of three independent experiments in duplicates; for Selectivity Ratio α1B/α1A: selectivity for α1A-AR (IC50(α1B-AR)/IC50(α1A-AR))
T1 sequence (P35348 1-466): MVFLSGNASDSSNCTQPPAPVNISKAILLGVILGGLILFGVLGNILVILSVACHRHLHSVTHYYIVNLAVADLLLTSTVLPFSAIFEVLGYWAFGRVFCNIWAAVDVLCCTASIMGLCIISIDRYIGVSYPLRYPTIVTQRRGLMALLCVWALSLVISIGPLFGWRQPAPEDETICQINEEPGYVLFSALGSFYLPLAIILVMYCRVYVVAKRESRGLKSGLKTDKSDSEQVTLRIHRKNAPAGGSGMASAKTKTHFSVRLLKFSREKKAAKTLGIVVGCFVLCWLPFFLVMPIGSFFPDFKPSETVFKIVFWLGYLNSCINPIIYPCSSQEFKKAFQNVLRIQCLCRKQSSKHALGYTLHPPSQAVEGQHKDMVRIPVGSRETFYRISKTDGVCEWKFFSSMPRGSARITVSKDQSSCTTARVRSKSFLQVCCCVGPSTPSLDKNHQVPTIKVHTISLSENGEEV
Procedure: (§1) The subtype selectivity for α1A and α1B was calculated as IC50(α1B-AR)/IC50(α1A-AR) and IC50(α1A-AR)/IC50(α1B-AR) ratio, respectively.
(§2) Intrinsic activity at the α1-AR subtypes studies were performed using the cells expressing mitochondrially-targeted aequorin and one of the human adrenergic receptor α1A or α1B (PerkinElmer, Boston, MA, USA), according to the manufacturer’s instructions. For measurement, frozen cells were thawed and re-suspended in 10 mL of assay buffer containing 5 μM “Coelenterazine h”. This cell suspension was put in a 10 mL Falcon tube, fixed onto a rotating heel, and incubated overnight at rt in the dark (8 rpm; 45° angle). Cells were diluted with Assay Buffer to 5000 cells/20 μL. […] The light emitted was recorded for 20 s. Cells with antagonists were incubated for 15 min at room temperature. […] Luminescence was measured using the multidetection microplate reader (POLARstar Omega, BMG LABTECH, Ortenberg, Germany).
(§3) All statistics were performed using GraphPad Prism, Version 6.0 (GraphPad Software, San Diego, CA, USA). In the radioligand binding study, data were analyzed by a one-site curve-fitting equation, and inhibition constants (Ki) values were calculated via the Cheng-Prusoff equation [63]. In functional studies, data were analyzed using a sigmoidal dose-response (variable slope) equation. Arterial blood pressure data were analyzed using a two-way ANOVA with Sidak’s post-hoc test for multiple comparisons. A p < 0.05 was considered statistically significant.

[2] = tested on: arterial blood pressure of normotensive Wistar rats; experiment: Influence on blood pressure in normotensive anesthetized rats after i.v. administration; format: in vivo, rat; conditions: for Diastolic blood pressure / Systolic blood pressure: 2.0 mg/kg i.v., mean, n = 6; for effect on systolic and diastolic blood pressure (in words): i.v., normotensive anesthetized rats
Procedure: In the next step, the hypotensive activity of novel compounds 1–3, 5–9, and 11–14 was determined after i.v. administration to normotensive anesthetized rats. All results are shown in Supplementary Table S1.
The normotensive rats were anesthetized with thiopental (75 mg/kg) by intraperitoneal injection (i.p.). The left carotid artery was cannulated with a polyethylene tub filled with heparin in saline to facilitate pressure measurements using a PowerLab Apparatus (ADInstruments, Sydney, Australia). Blood pressure was measured immediately before administration of the tested compounds or vehicle—time 0 min (initial blood pressure) and 60 min thereafter. Initial blood pressure before administration of the tested chemicals in all experimental groups was similar. The tested compounds were dissolved in a specific vehicle: ethyl alcohol 5% − kolliphor 5% − water 90%. All tested chemicals were administrated intravenously (i.v.) at a constant volume of 1 mL/kg after 20 min of stabilization period. The compounds were tested at a starting dose of 2 mg/kg. If the hypotensive activity was found, the dose was reduced by half. The dosing was continued until the hypotensive effects disappeared. Urapidil was used as a reference compound.
as §3

[3] = target: T2, human adrenergic receptor α1B (Homo sapiens, UniProt P35368); experiment: Intrinsic activity, aequorin luminescence functional assay at α1B-AR; format: cell-based; conditions: for α1B-AR Profile: agonist/antagonist profile; for pIC50: cells expressing aequorin and human α1B, against phenylephrine, means of three independent experiments in duplicates; for Selectivity Ratio α1A/α1B: selectivity for α1B-AR (IC50(α1A-AR)/IC50(α1B-AR))
T2 sequence (P35368 1-520): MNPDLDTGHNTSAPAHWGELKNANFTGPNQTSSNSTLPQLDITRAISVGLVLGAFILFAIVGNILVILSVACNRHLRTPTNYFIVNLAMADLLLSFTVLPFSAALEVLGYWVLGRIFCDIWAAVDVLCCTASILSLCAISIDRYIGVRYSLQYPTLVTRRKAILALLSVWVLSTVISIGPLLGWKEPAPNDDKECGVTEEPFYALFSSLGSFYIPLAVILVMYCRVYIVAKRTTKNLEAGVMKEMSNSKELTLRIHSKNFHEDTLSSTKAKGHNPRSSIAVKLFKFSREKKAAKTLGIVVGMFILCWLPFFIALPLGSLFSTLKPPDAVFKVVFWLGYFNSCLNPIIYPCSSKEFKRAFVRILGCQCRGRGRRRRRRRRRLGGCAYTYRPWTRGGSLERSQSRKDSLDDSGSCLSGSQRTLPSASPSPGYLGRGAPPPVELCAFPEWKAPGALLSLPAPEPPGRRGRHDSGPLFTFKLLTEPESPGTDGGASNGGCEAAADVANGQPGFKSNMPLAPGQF
Procedure: as §1, §2, §3

[4] = target: α1-adrenoceptors (α1-ARs), rat cerebral cortex; experiment: Radioligand binding assay with [3H]-prazosin, affinity for α1-ARs; conditions: three independent experiments in duplicates, read-out: α1-adrenoceptor affinity Ki
[5] = 0 min (initial, before administration)

SMILES	α1A-AR Profile [1]	pIC50 [1]	Selectivity Ratio α1B/α1A [1]	Diastolic blood pressure [2, 5]	Systolic blood pressure [2, 5]	Diastolic blood pressure ([2]; 5 min)	Systolic blood pressure ([2]; 5 min)	Diastolic blood pressure ([2]; 10 min)	Systolic blood pressure ([2]; 10 min)	Diastolic blood pressure ([2]; 20 min)	Systolic blood pressure ([2]; 20 min)	Diastolic blood pressure ([2]; 30 min)	Systolic blood pressure ([2]; 30 min)	Diastolic blood pressure ([2]; 40 min)	Systolic blood pressure ([2]; 40 min)	Diastolic blood pressure ([2]; 50 min)	Systolic blood pressure ([2]; 50 min)	Diastolic blood pressure ([2]; 60 min)	Systolic blood pressure ([2]; 60 min)	α1B-AR Profile [3]	further results
CC1(C)C(=O)N(Cc2ccc(Cl)cc2Cl)C(=O)N1CC(O)CN1CCN(c2ccccc2)CC1.Cl (stereo not shown) [Compound 6, 3-(2,4-dichlorobenzyl)-1-(2-hydroxy-3-(4-phenylpiperazin-1-yl)propyl)-5,5-dimethylimidazolidine-2,4-dione hydrochloride]	Antagonist	5.23	0.15	98.2	134.2	87.2	124.2	90.3	125.2	89.7	126.3	89.0	125.0	89.0	126.7	89.2	125.5	88.7	125.8	Antagonist	pIC50 [3]: 6.04; Selectivity Ratio α1A/α1B [3]: 6.53; pKi [4]: 7.28; melting point: 196 to 198 °C
CC1(C)C(=O)N(Cc2ccc(Cl)cc2Cl)C(=O)N1CCCCCN1CCN(c2ccccc2)CC1.Cl [Compound 3, 3-(2,4-dichlorobenzyl)-5,5-dimethyl-1-(5-(4-phenylpiperazin-1-yl)pentyl)imidazolidine-2,4-dione hydrochloride]	Antagonist	6.54	0.01	93.7	132.2	90.3	123.3	81.2	113.7	81.7	113.0	83.2	116.3	82.7	116.3	84.2	120.3	83.8	119.7	Antagonist	effect on systolic and diastolic blood pressure (in words) [2]: statistically significant reduction; pIC50 [3]: > 7.96 and 8.49; selectivity for α1B-AR over α1A-AR ([3]; from IC50 ratio): ~ 90 fold; Selectivity Ratio α1A/α1B [3]: 88.73; pKi [4]: 7.37; melting point: 218 to 220 °C
CC1(C)C(=O)N(Cc2ccc(Cl)cc2Cl)C(=O)N1CC(O)CN1CCN(c2ccccc2C#N)CC1.Cl (stereo not shown) [Compound 11, 3-(2,4-dichlorobenzyl)-1-(3-(4-(2-cyanophenyl)piperazin-1-yl)-2-hydroxypropyl)-5,5-dimethylimidazolidine-2,4-dione hydrochloride]	Antagonist	6.79	2.21	91.7	128.5	84.0	117.0	80.7	112.8	79.7	113.0	79.8	112.5	82.0	113.8	82.3	116.3	81.7	118.2	Antagonist	selectivity for α1A-AR over α1B-AR ([1]; from IC50 ratio): ~ 2 fold; effect on systolic and diastolic blood pressure (in words) [2]: no significant changes; pIC50 [3]: 6.44; Selectivity Ratio α1A/α1B [3]: 0.45; pKi [4]: 7.59; melting point: 147 to 149 °C
CC1(C)C(=O)N(Cc2ccc(Cl)cc2Cl)C(=O)N1CCCN1CCN(c2cccc(Cl)c2Cl)CC1.Cl [Compound 2, 3-(2,4-dichlorobenzyl)-1-(3-(4-(2,3-dichlorophenyl)piperazin-1-yl)propyl)-5,5-dimethylimidazolidine-2,4-dione hydrochloride]	Antagonist	5.76	0.66	100.7	129.3	98.5	126.7	96.8	124.2	92.8	121.7	90.3	121.2	89.3	120.2	88.0	120.3	88.0	119.3	Antagonist	pIC50 [3]: 5.94; Selectivity Ratio α1A/α1B [3]: 1.51; pKi [4]: 6.27; melting point: 185 to 187 °C

Source: publication PMC10706087, “The Subtype Selectivity in Search of Potent Hypotensive Agents among 5,5-Dimethylhydantoin Derived α1-Adrenoceptors Antagonists” (International Journal of Molecular Sciences, 2023)
